ChEMBL document CHEMBL4219222, “A new class of pyrazolo[5,1-c][1,2,4]triazines as γ-aminobutyric type A (GABAA) receptor subtype ligand: synthesis and pharmacological evaluation” (Bioorg Med Chem, 2018)

How the values were obtained:
[1] = Displacement of [3H]Ro15-1788 from GABAA receptor in bovine cerebral cortex membranes after 90 mins by liquid scintillation counting method; type: cell membranes, Bos taurus, Membrane
[2] = target: GABA-A receptor; alpha-1/beta-2/gamma-2 (Rattus norvegicus, UniProt P18508+P62813+P63138); assay: Displacement of [3H]Ro15-1788 from recombinant rat GABAAalpha1/beta2/gamma2 receptor after 90 mins by liquid scintillation counting method; type: protein-complex assay
[3] = Displacement of [3H]Ro15-1788 from recombinant rat GABAAalpha2/beta2/gamma2 receptor after 90 mins by liquid scintillation counting method
[4] = Displacement of [3H]Ro15-1788 from recombinant rat GABAAalpha3/beta2/gamma2 receptor after 90 mins by liquid scintillation counting method
[5] = target: GABA A receptor alpha-5/beta-3/gamma-2 (Rattus norvegicus, UniProt P18508+P19969+P63079); assay: Displacement of [3H]Ro15-1788 from recombinant rat GABAAalpha5/beta3/gamma2 receptor after 90 mins by liquid scintillation counting method; type: protein-complex assay
Bos taurus = species: Bos taurus; assay: Displacement of [3H]Ro15-1788 from GABAA receptor in bovine cerebral cortex membranes at 10 uM after 90 mins by liquid scintillation counting method relative to control; type: cell membranes; settings: Membrane
Rattus norvegicus [6] = species: Rattus norvegicus; assay: Displacement of [3H]Ro15-1788 from recombinant rat GABAAalpha2/beta2/gamma2 receptor at 10 uM after 90 mins by liquid scintillation counting method relative to control
[7] = target: GABA A receptor alpha-5/beta-3/gamma-2 (Rattus norvegicus) (UniProt P18508+P19969+P63079); assay: Displacement of [3H]Ro15-1788 from recombinant rat GABAAalpha5/beta3/gamma2 receptor at 10 uM after 90 mins by liquid scintillation counting method relative to control; type: protein-complex assay
Rattus norvegicus [8] = species: Rattus norvegicus; assay: Displacement of [3H]Ro15-1788 from recombinant rat GABAAalpha3/beta2/gamma2 receptor at 10 uM after 90 mins by liquid scintillation counting method relative to control
Rattus norvegicus [9] = species: Rattus norvegicus; assay: Selectivity ratio of Ki for recombinant rat GABAAalpha1/beta2/gamma2 receptor to Ki for recombinant rat GABAAalpha2/beta2/gamma2 receptor
Rattus norvegicus [10] = species: Rattus norvegicus; assay: Selectivity ratio of Ki for recombinant rat GABAAalpha5/beta3/gamma2 receptor to Ki for recombinant rat GABAAalpha2/beta2/gamma2 receptor

Chain of GABA-A receptor; alpha-1/beta-2/gamma-2 (P18508 whole entry): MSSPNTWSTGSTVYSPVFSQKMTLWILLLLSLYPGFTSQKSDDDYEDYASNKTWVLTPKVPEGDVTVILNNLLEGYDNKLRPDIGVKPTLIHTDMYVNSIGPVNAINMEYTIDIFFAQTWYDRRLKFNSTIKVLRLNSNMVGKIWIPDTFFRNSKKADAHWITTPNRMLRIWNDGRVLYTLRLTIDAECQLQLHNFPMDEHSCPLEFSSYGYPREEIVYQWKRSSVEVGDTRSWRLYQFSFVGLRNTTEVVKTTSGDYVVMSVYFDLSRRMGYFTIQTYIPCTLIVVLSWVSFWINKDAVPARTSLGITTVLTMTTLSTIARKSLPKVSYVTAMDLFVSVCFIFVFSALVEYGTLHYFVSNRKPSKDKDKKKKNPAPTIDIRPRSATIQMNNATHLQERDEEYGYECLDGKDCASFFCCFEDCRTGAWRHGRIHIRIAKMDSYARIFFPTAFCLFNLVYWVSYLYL
Chain of GABA-A receptor; alpha-1/beta-2/gamma-2 (P62813 whole entry): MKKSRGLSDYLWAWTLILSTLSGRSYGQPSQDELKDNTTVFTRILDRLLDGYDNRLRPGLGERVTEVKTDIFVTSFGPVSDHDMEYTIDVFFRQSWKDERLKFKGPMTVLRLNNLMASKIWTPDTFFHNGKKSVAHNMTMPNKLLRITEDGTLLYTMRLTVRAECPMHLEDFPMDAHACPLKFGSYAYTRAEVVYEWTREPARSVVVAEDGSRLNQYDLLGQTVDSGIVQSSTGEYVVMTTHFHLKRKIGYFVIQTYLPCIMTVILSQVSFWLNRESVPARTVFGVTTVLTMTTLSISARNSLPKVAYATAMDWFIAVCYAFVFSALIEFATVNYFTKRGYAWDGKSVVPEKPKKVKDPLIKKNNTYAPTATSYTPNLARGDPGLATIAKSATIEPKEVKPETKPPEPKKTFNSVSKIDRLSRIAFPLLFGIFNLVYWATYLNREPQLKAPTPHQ
Chain of GABA-A receptor; alpha-1/beta-2/gamma-2 (P63138 whole entry): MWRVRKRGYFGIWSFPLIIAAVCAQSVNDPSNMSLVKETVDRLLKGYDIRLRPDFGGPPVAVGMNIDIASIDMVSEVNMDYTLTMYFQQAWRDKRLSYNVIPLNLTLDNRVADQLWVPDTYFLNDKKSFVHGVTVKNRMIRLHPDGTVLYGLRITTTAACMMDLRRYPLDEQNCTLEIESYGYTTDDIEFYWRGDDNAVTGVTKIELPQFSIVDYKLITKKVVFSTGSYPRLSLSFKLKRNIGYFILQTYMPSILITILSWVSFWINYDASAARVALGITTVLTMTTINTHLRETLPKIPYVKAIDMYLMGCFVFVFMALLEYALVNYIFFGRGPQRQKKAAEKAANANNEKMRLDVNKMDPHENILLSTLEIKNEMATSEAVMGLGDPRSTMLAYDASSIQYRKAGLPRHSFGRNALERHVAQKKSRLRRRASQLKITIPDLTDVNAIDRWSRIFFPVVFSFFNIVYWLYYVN
Chain of GABA A receptor alpha-5/beta-3/gamma-2 (P18508 whole entry): as the sequence (P18508 whole entry) above
Chain of GABA A receptor alpha-5/beta-3/gamma-2 (P19969 whole entry): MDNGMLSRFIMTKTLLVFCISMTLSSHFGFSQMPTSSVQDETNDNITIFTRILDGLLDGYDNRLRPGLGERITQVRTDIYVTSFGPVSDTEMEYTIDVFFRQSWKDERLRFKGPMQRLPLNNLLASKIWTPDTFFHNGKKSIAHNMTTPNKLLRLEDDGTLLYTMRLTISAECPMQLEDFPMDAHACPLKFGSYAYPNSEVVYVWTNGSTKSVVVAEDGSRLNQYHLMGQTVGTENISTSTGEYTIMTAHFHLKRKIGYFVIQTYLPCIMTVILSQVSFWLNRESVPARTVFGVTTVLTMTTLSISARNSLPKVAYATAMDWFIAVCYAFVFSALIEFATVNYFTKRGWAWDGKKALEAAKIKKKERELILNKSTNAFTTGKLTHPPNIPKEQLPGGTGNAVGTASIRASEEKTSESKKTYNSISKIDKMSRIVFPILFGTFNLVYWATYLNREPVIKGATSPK
Chain of GABA A receptor alpha-5/beta-3/gamma-2 (P63079 whole entry): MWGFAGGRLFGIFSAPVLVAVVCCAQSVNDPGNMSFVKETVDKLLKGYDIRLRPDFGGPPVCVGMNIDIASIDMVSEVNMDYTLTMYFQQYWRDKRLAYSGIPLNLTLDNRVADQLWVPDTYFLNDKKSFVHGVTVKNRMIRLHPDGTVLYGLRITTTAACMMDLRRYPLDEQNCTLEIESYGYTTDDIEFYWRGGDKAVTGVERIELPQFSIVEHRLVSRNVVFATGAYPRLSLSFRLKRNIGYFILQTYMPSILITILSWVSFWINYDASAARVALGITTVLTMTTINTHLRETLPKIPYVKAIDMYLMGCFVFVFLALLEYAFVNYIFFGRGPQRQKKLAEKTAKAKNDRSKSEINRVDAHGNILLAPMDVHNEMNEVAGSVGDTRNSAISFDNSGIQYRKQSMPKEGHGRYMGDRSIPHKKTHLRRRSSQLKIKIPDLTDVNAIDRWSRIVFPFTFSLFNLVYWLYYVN

Row | Structure (SMILES) | Ki [1] [nM] | Ki [2] [nM] | Ki [3] [nM] | other results
1 | O=c1c(-c2cc[nH]n2)c[nH]c2c(-n3cccc3)cnn12 | 2670 |  |  | 
2 | O=c1c(-c2cc[nH]n2)n[nH]c2c(-c3ccccc3)cnn12 | 329 | 420 | 3000 | Ki [4]: 2090 nM; Ki [5]: 408 nM
3 | O=c1c(-c2cc[nH]n2)n[nH]c2c(-c3cccc4ccccc34)cnn12 | 77 | 150 |  | Ki [5]: 159 nM
4 | O=c1c(-c2cc[nH]n2)c[nH]c2c(-c3ccccn3)cnn12 | 14.2 |  |  | 
5 | O=c1c(-c2cc[nH]n2)n[nH]c2c(-c3ccc4ccccc4c3)cnn12 | 2300 |  |  | 
6 | O=c1c(-n2ccnc2)c[nH]c2c(-c3cccs3)cnn12 |  |  |  | inhibition (Bos taurus): 14.7%
7 | O=c1c(-n2cccn2)c[nH]c2c(-c3cccs3)cnn12 |  |  |  | inhibition (Bos taurus): 13.9%
8 | O=c1c(-c2cc[nH]n2)c[nH]c2c(Cc3ccccc3)cnn12 | 854 |  |  | 
9 | O=c1c(-c2cc[nH]n2)c[nH]c2c(-c3cccc(Cl)c3)cnn12 | 95.4 |  |  | 
10 | O=c1c(-c2cc[nH]n2)n[nH]c2c(-c3cccc(C(F)(F)F)c3)cnn12 | 7.2 | 6.5 | > 5000 | Ki [4]: 501 nM; Ki [5]: 144 nM
11 | O=c1c(-c2cc[nH]n2)c[nH]c2c(-c3cccnc3)cnn12 | 37.3 |  |  | 
12 | O=c1c(-n2cccn2)c[nH]c2c(-c3ccccc3)cnn12 |  |  |  | inhibition (Bos taurus): 59.5%
13 | COc1ccc(-c2cnn3c(=O)c(-c4cc[nH]n4)n[nH]c23)cc1 | 1610 |  |  | 
14 | O=c1c(-n2ccnc2)c[nH]c2c(-c3ccccc3)cnn12 |  |  |  | inhibition (Bos taurus): 2%
15 | O=c1c(-c2cc[nH]n2)c[nH]c2c(-c3cccc4ccccc34)cnn12 | 599 |  |  | 
16 | Cc1ccc(-c2cnn3c(=O)c(-c4cc[nH]n4)n[nH]c23)cc1 |  |  |  | inhibition (Bos taurus): 32%
17 | O=c1c(-c2cc[nH]n2)n[nH]c2c(-c3cccc(Br)c3)cnn12 | 38 | 21 |  | inhibition (Rattus norvegicus [6]): 50%; Ki [4]: 570 nM; Ki [5]: 1120 nM
18 | O=c1c(-c2cc[nH]n2)c[nH]c2c(-c3ccc4ccccc4c3)cnn12 |  |  |  | inhibition (Bos taurus): 20%
19 | O=c1c(-c2cc[nH]n2)n[nH]c2c(-c3cccc(Cl)c3)cnn12 | 74 | 65.6 | 990 | Ki [4]: 660 nM; inhibition [7]: 40%
20 | O=c1c(-c2cc[nH]n2)n[nH]c2c(-c3cccnc3)cnn12 | 73.6 | 51 | 5000 | Ki [4]: 502 nM; Ki [5]: 1240 nM
21 | O=c1c(-c2cc[nH]n2)n[nH]c2c(-c3ccccn3)cnn12 | 10.5 | 9.1 | 12 | inhibition [7]: 32%
22 | O=c1c(-c2cc[nH]n2)n[nH]c2c(-c3cccs3)cnn12 | 237 | 285 | 41.2 | inhibition (Rattus norvegicus [8]): 28%; Ki [5]: 662 nM; Ratio Ki (Rattus norvegicus [9]): 7; Ratio Ki (Rattus norvegicus [10]): 16
23 | O=c1c(-c2cc[nH]n2)n[nH]c2c(-c3ccc(F)cc3)cnn12 | 88.3 | 77.3 | 2420 | Ki [4]: 894 nM; Ki [5]: 1110 nM
24 | O=c1c(-c2cc[nH]n2)n[nH]c2c(-c3cccc(F)c3)cnn12 | 152 | 100 | 632 | Ki [4]: 1080 nM; inhibition [7]: 23%
25 | O=c1c(-c2cc[nH]n2)c[nH]c2c(-c3cccs3)cnn12 | 533 |  |  | 
26 | O=c1c(-c2cc[nH]n2)c[nH]c2c(-c3ccccc3)cnn12 | 326 |  |  | 
